Measurements from article PMC11969009 (Nature Communications, 2025).
Where “and” joins values, the source holds several entries; their conditions need not be identical. Equal entries are not always repeated. Where two headings read alike, the source gives them in different places.

How the values were obtained:
SARS-CoV PLpro = SARS-CoV PLpro (Severe acute respiratory syndrome coronavirus, UniProt P0C6X7); assay: biochemical; parameters: inhibition of SARS-CoV PLpro, UbRh dose-response replicate value: unit: %
SARS-CoV-2 PLpro [1] = molecular target: T1, SARS-CoV-2 PLpro (Severe acute respiratory syndrome coronavirus 2, UniProt P0DTD1); assay: cell-based; assay type: cell-based
USP21 = USP21 (Homo sapiens, UniProt Q9UK80); assay type: biochemical
229E PL2pro = 229E PL2pro (Human coronavirus 229E, UniProt P0C6X1); assay: biochemical; parameters: inhibition of 229E PL2pro, UbRh dose-response replicate value: unit: %
NL63 PL2pro = NL63 PL2pro (Human coronavirus NL63, UniProt P0C6X5); assay: biochemical; parameters: inhibition of NL63 PL2pro, UbRh dose-response replicate value: unit: %
SARS-CoV-2 PLpro [2] = molecular target: T1, SARS-CoV-2 PLpro; assay: biochemical; parameters: inhibition of SARS-CoV-2 PLpro, UbRh dose-response replicate value: unit: %

CO/N=C(/c1ccc2cc(OC)ccc2c1)[C@@H]1CCCN([C@H]2CC[C@@H](O)CC2)C1 [WEHI-P4]
IC50 (SARS-CoV PLpro): 22 nM
inhibition of SARS-CoV PLpro, UbRh dose-response replicate value (SARS-CoV PLpro): 99.5179 and 99.8695 and 99.888 and 100.41 and 101.206 and 100.652 and 97.9154 and 99.4293 and 98.8906 and 95.7801 and 96.2197 and 96.0782 and 88.7276 and 90.1243 and 89.7578
inhibition of SARS-CoV PLpro, UbRh dose-response replicate value (SARS-CoV PLpro; Conc 0.00498 µM): 14.7599 and 17.411 and 20.7686
inhibition at 0.00498 µM (SARS-CoV PLpro; Conc 0.00498 µM, read-out: inhibition of SARS-CoV PLpro, UbRh dose-response replicate value): 16.2%
inhibition of SARS-CoV PLpro, UbRh dose-response replicate value (SARS-CoV PLpro; Conc 0.0149 µM): 37.3989 and 38.0308 and 36.4129
inhibition at 0.0149 µM (SARS-CoV PLpro; Conc 0.0149 µM, read-out: inhibition of SARS-CoV PLpro, UbRh dose-response replicate value): 35.6%
inhibition of SARS-CoV PLpro, UbRh dose-response replicate value (SARS-CoV PLpro; Conc 0.0448 µM): 69.6451 and 70.3349 and 71.2781
inhibition at 0.0448 µM (SARS-CoV PLpro; Conc 0.0448 µM, read-out: inhibition of SARS-CoV PLpro, UbRh dose-response replicate value): 67.2%
inhibition of SARS-CoV PLpro, UbRh dose-response replicate value (SARS-CoV PLpro; Conc 3.63 µM): 99.5331 and 99.9857 and 99.4982
inhibition at 3.63 µM (SARS-CoV PLpro; Conc 3.63 µM, read-out: inhibition of SARS-CoV PLpro, UbRh dose-response replicate value): 99.4%
inhibition of SARS-CoV PLpro, UbRh dose-response replicate value (SARS-CoV PLpro; Conc 98 µM): 99.3819 and 99.8238 and 100.106
inhibition at 98 µM (SARS-CoV PLpro; Conc 98 µM, read-out: inhibition of SARS-CoV PLpro, UbRh dose-response replicate value): 99.7%
inhibition at […] (SARS-CoV PLpro; read-out: inhibition of SARS-CoV PLpro, UbRh dose-response replicate value): 100% (2×) and 98.8% and 95.9% and 88.8%
EC50 (SARS-CoV-2 PLpro [1]): 310 nM
inhibition of USP21, UbRh dose-response replicate value (USP21): -14.237 and -11.9773 and -10.1399 and -17.0381 and -16.4868 and -21.6825 and -18.261 and -18.781 and -13.7423 and -13.1772 and -6.117 and -6.284 and -18.5884 and -21.057 and -7.715 and -13.3224
inhibition of USP21, UbRh dose-response replicate value (USP21; Conc 0.000249 µM): -14.4284 and -17.3988 and 5.209 and -15.2664
inhibition of USP21, UbRh dose-response replicate value (USP21; Conc 0.000745 µM): -25.0632 and -19.3083 and -9.965 and -17.0572
inhibition of USP21, UbRh dose-response replicate value (USP21; Conc 0.00675 µM): -16.8226 and -16.7878 and -5.942 and -9.8797
inhibition of USP21, UbRh dose-response replicate value (USP21; Conc 0.545 µM): -6.303 and -14.0881 and -12.3002 and -21.4576
inhibition of USP21, UbRh dose-response replicate value (USP21; Conc 1.64 µM): -4.137 and -7.939 and -11.2839 and -6.868
inhibition of USP21, UbRh dose-response replicate value (USP21; Conc 4.9 µM): -8.882 and -9.138
inhibition of 229E PL2pro, UbRh dose-response replicate value (229E PL2pro): -3.299 and -1.103 and -1.357 and -1.684 and -5 and -3.221 and 0.1898 and -0.4439 and 15.3408 and -2.102 and -1.619 and -0.7174 and -1.603 and -0.8771 and -3.61 and -1.122 and -1.443 and -0.5265 and -4.511 and -0.9697
inhibition of 229E PL2pro, UbRh dose-response replicate value (229E PL2pro; Conc 0.00498 µM): -2.024 and 3.205 and 24.2526 and 1.229
inhibition of 229E PL2pro, UbRh dose-response replicate value (229E PL2pro; Conc 0.0149 µM): -0.08917 and 0.9383 and 15.3791 and -0.8809
inhibition of 229E PL2pro, UbRh dose-response replicate value (229E PL2pro; Conc 0.0448 µM): -0.8342 and -1.338 and 5.491 and -0.5647
inhibition of 229E PL2pro, UbRh dose-response replicate value (229E PL2pro; Conc 3.63 µM): -3.66 and -1.559 and -7.103 and -2.2201
inhibition of 229E PL2pro, UbRh dose-response replicate value (229E PL2pro; Conc 98 µM): 0.4544 and 1.371 and 3.91 and 5.222
IC50 (NL63 PL2pro): 52000 nM
inhibition of NL63 PL2pro, UbRh dose-response replicate value (NL63 PL2pro): 29.2044 and 27.2154 and 12.8016 and 14.0355 and 13.7224 and -0.9824 and 3.459 and 0.1256 and -0.3351 and 1.574 and 1.516 and -0.1016 and -0.4149 and 0.8753 and 0.8707 and 2.0171 and 6.071
inhibition of NL63 PL2pro, UbRh dose-response replicate value (NL63 PL2pro; Conc 0.00498 µM): 2.403 and 7.259 and 5.7694 and -2.335
inhibition of NL63 PL2pro, UbRh dose-response replicate value (NL63 PL2pro; Conc 0.0149 µM): 1.231 and 5.289 and 2.0908 and -3.1147
inhibition of NL63 PL2pro, UbRh dose-response replicate value (NL63 PL2pro; Conc 0.0448 µM): 0.2539 and -0.387 and 1.95 and -0.1081
inhibition of NL63 PL2pro, UbRh dose-response replicate value (NL63 PL2pro; Conc 3.63 µM): 5.122 and 3.572 and 1.225 and -0.02217
inhibition of NL63 PL2pro, UbRh dose-response replicate value (NL63 PL2pro; Conc 98 µM): 57.8171 and 54.6906 and 55.1157
inhibition at 98 µM (NL63 PL2pro; Conc 98 µM, read-out: inhibition of NL63 PL2pro, UbRh dose-response replicate value): 58.4%
inhibition at […] (NL63 PL2pro; read-out: inhibition of NL63 PL2pro, UbRh dose-response replicate value): 34.7% and 15.8%
inhibition of SARS-CoV-2 PLpro, UbRh dose-response replicate value (SARS-CoV-2 PLpro [2]; Conc 0.000249 µM): -6.989 and -6.2311 and -15.3901 and -12.0234 and -3.121 and 2.182 and 11.6978 and 1.819
inhibition of SARS-CoV-2 PLpro, UbRh dose-response replicate value (SARS-CoV-2 PLpro [2]; Conc 0.000745 µM): -5.473 and -5.949 and -17.0454 and -10.682
inhibition of SARS-CoV-2 PLpro, UbRh dose-response replicate value (SARS-CoV-2 PLpro [2]; Conc 0.000747 µM): 12.1399 and 17.4092 and 12.0617
inhibition at 0.000747 µM (SARS-CoV-2 PLpro [2]; Conc 0.000747 µM, read-out: inhibition of SARS-CoV-2 PLpro, UbRh dose-response replicate value): 8.73%
inhibition of SARS-CoV-2 PLpro, UbRh dose-response replicate value (SARS-CoV-2 PLpro [2]; Conc 0.00498 µM): -1.775 and 0.6518 and -0.6615 and -14.6544
inhibition of SARS-CoV-2 PLpro, UbRh dose-response replicate value (SARS-CoV-2 PLpro [2]; Conc 0.00675 µM): 22.4234 and 17.1978 and 22.0771
